# Data as given in patent publication US9938250B2, “Antifibrotic effects of oxetanyl sulfoxides” (University of Pittsburgh—Of the Commonwealth System of …, priority 2015, dated 2018).
# Entries after “also recorded” stand apart in the source; their conditions may differ.
# Key:
# [1] = discussion, comparison of DMSO with MMS-350; cited from earlier work
# experimental mice = settings: cited from earlier work
# [2] = system: endothelial and alveolar type II cells; settings: cells cultured from lung tissues of mice following thoracic irradiation; Kalash et al In vivo 2013; cited from earlier work
# [3] = Aqueous solubility, statement only; format: physicochemical
# C57BL/6J mice = experiment: Bleomycin-induced pulmonary fibrosis in mice; format: in vivo
# Procedure: Pulmonary fibrosis was induced in male 6- to 8-week-old C57BL/6J mice by intratracheal administration of 1 mg/kg of Bleomycin (Enzo) in a total volume of 50 uL. Mice were orally administered either 200 uL of PBS or MMS-350 (2%) on a daily basis and lungs were harvested after 5 and 14 days. Right lungs were fixed in 10% neutralized formalin and paraffin embedded. Left lungs were frozen for hydroxyproline assay and total RNA extraction.
# Six-micrometer sections of paraffin-embedded mouse lung tissues were stained with H&E and images were taken on an Olympus Provis III microscope (Olympus America Inc.) with identical settings.
# Hydroxyproline assay. The hydroxyproline content of mouse lung tissues obtained on day 14 was measured as described (41) and adjusted by lung weight.
# Frozen mouse lung tissues obtained on day 5 were placed in 1.5 mL of RNase free Red Bead Lysis Kit tubes (Next Advance) containing 500 uL of TRIzol® Reagent (Life Technologies) and homogenized using BBX24 Bullet Blender® (Next Advance). Total RNA was extracted and purified with RNeasy Mini Kit (Qiagen). Reverse transcription was performed with SuperScript II (Invitrogen) followed by quantitative polymerase chain reaction (PCR) amplification with the TaqMan method (ABI Prism 7300; Applied Biosystems). Premixed PCR primers and TaqMan probes for mouse collagen 1A2 and GAPDH were obtained from Applied Biosystems. Gene expression levels were normalized to GAPDH and compared with the 2^−ΔΔCt method.
# [4] = system: primary human fibroblasts; experiment: TGFβ-induced fibrotic markers in primary human lung fibroblasts, immunoblotting; format: cell-based
# Procedure: All tissues were obtained under a protocol approved by the Institutional Review Board of the University of Pittsburgh and with written consent. Primary human fibroblasts were cultured from the lung tissues of normal donors and patients undergoing lung transplantation. Fibroblasts were grown in Dulbecco's modified Eagle's medium (DMEM) supplemented with 10% fetal bovine serum (FBS), 100 U/mL penicillin, […] streptomycin and […] amphotericin B, and maintained at 37° C. in 5% CO2 humidified incubator. Three strains of normal primary human fibroblasts were plated on 6-well plates at a seeding density of 2.5×10^5 cells per well. Cells were serum starved for 6-16 h and treated with vehicle, TGFβ (10 ng/mL), MMS-350 (0.5 mg/mL), or TGFβ+MMS-350. Experiments using KRL507-031 were performed similarly. The cell lysates and culture supernatants were harvested 72 h after treatment and analyzed by immunoblotting.
# Fibroblasts were rinsed with 1× PBS, scraped into 100 μL of 2×-sodium dodecyl sulfate (SDS) sample buffer, and boiled for 5 min. Equal protein amounts of cell lysates or supernatants were resolved on 10-12% sodium dodecyl sulfate polyacrylamide (SDS-PAGE) gels. Proteins were transferred to 0.2 μm nitrocellulose membranes (Whatman, Germany) and blocked with 5% nonfat dry milk in TBS-Tween 20 for 1 h at room temperature. Membranes were incubated with primary antibodies overnight at 4° C. followed by horseradish peroxidase-conjugated secondary antibodies for 1 h at room temperature. Signals were detected with enhanced chemiluminescence (Perkin Elmer Life Sciences, Inc., Boston, Mass.) and imaged with the FluorChem E digital imaging system from Protein Simple (Santa Clara, Calif.). Results were analyzed using the accompanying software Alphaview.
# [5] = TGFβ 10 ng/mL + MMS-350 0.5 mg/mL vs TGFβ1 alone, 72 h
Structure (SMILES),log P (lipophilicity) [1],mitigation of ionizing irradiation (experimental mice; Goff et al 2013),radiation-induced pulmonary fibrosis (experimental mice; Kalash et al Radiat Res 2013),survival of irradiated mice (experimental mice; Kalash et al Radiat Res 2013),pro-fibrotic gene expression [2],aqueous solubility [3],"Collagen α2I mRNA levels in lung (C57BL/6J mice; MMS-350 (2%) oral daily, day 5)","hydroxyproline levels in lung (C57BL/6J mice; MMS-350 (2%) oral daily, day 14)","lung fibrosis, histology (H&E) (C57BL/6J mice; bleomycin 1 mg/kg intratracheal, MMS-350 (2%) 200 uL oral daily, day 14)","overall survival (C57BL/6J mice; bleomycin + MMS-350, bleomycin-treated mice 62.5%)",toxicity (C57BL/6J mice; given orally),"weight loss (C57BL/6J mice; vs mice treated with bleomycin alone, data not shown)","CTGF secreted protein [4, 5]","IGFBP3 (BP3) secreted protein [4, 5]","collagen 1α1 (Col1) protein [4, 5]","fibronectin (FN) protein [4, 5]","α-SMA protein (marker of fibroblast activation) [4, 5]",anti-fibrotic activity on delayed addition ([4]; compound added 30 min to 6 h after TGFβ)
"C[S+](C)[O-] [DMSO, dimethyl sulfoxide, reference compound]",-1.4,–,–,–,–,–,–,–,–,–,–,–,–,–,–,–,–,–
"CC1(C[S+]([O-])CC2(C)COC2)COC1 [MMS-350, 3,3′-Sulfinylbis(methylene)bis(3-methyloxetane)]",−0.7,mitigator of ionizing irradiation,ameliorate radiation-induced pulmonary fibrosis,increase survival,reduce pro-fibrotic gene expression,exquisite aqueous solubility; also recorded: exceptionally high aqueous solubility,reduced,significant reduction,ameliorated fibrosis histologically,87.5%,no toxicity,less weight loss,significantly decreased,significantly decreased,significantly decreased,significantly decreased,significantly decreased,profound anti-fibrotic activity
